Laboratory results from US20160066550A1, “Animal Model Expressing Luciferase under Control of the Myelin Basic Protein Promoter (MBP-luci) and Use of the Model for Bioluminescence In Vivo Imaging” (SANOFI, priority 2009, published 2016).
Where two headings read alike, the source gives them in different places.

Assays:
[1] = system: MBP-luc line 171 heterozygous B6C3H mice; assay: MBP-luci bioimaging, cuprizone model, demyelination phase, line 171 heterozygous; format: in vivo, mouse
Protocol: (§1) Mice were imaged at week 0 (baseline), week 3 and week 4 data normalized to the week 0 baseline.
As described above, mice were injected with 250 mg/kg D-luciferin through SC, IP or IV. After 5 (intravenous) or 8 (intraperitoneal or SC) minutes, mice were imaged using the IVIS 100 (Xenogen) for 16 minutes (60 seconds imaging and 60 seconds interval for 8 pictures at bin size 8). To quantify bioluminescence, identical circular regions of interest were positioned to encircle each mouse head region, and the imaging signal was quantitated as average radiance (photons/s/cm2/steridian) using […] software (version 2.5, Xenogen). The head region of interest was kept constant in area and positioning within all experiments. Data were normalized to bioluminescence at the initiation of treatment for each animal.
as §1

[2] = system: MBP-luci mice; format: in vivo, mouse; settings: 0.2% cuprizone diet; for imaging signal drop: MBP 5k-luci line 171 (B6C3)
Protocol: To quantify bioluminescence, identical circular regions of interest were positioned to encircle each mouse head region, and the imaging signal was quantitated as average radiance (photons/s/cm2/steridian) using […] software (version 2.5, Xenogen).
As further proof, a MBP 5k-luci line 171 (B6C3 strain) was tested. […] There was significant imaging signal drop with cuprizone treatment (demyelination). For example, there is 43% signal drop from wk 0 to wk 4 and 74% signal drop from wk 0 to wk 6.
Three different MBP-luci lines (line 171 B6C3H het strain, line 121 C57BL/6 heterozygous strain and line 171 B6C3H homozygous strain) were compared by bioimaging and Luxol Fast Blue (LFB; myelin stain) histology. Mice were placed on a diet containing 0.2% cuprizone for 4 or 5 weeks. Imaging data were normalized to week 0 baseline measurements. At the end of each study, mouse brains were harvested and serial paraffin sections were stained for myelin with LFB. Average qualitative LFB score (0 to 5) was shown in the chart of FIG. 21. […] Line 171 B6C3H homozygous mice had the largest bioimaging signal reduction during cuprizone food feeding in the reference to their base line imaging before cuprizone food feeding. For example, after three weeks on the cuprizone diet, 171 B6C3H homozygous mice had 72% signal reduction (week 3 reference to week 0, p<0.05), while line 171 B6C3H heterozygous mice had 45% bioimaging signal reduction (reference to week 0, p<0.05). Line 121 C57 BL/6 heterozygous mice had the smallest reduction in luciferase signal (33% reduction at week 3 over week 0, p<0.05).

| Compound | imaging signal vs vehicle control ([1]; 10 mg/kg oral, week 3 and week 4 on cuprizone diet, first study (FIG. 17)) | cuprizone-induced bioimaging signal reduction ([1]; 10 mg/kg, week 3, second study (FIG. 18), vehicle 47% reduction, p=0.028) [%] | bioimaging signal increase ([1]; 10 mg/kg, week 4, second study (FIG. 18), vehicle 25% reduction) [%] | transgene activity compared to the vehicle control group ([1]; 10 mg/kg, weeks 3 and 4, second study (FIG. 18)) | imaging signal drop ([2]; wk 0 to wk 4) [%] | imaging signal drop ([2]; wk 0 to wk 6) [%] | reduction in luciferase signal ([2]; week 3 over week 0, line 121 C57 BL/6 heterozygous, p<0.05) [%] | bioimaging signal reduction ([2]; week 3 vs week 0, line 171 B6C3H heterozygous, p<0.05) [%] | bioimaging signal reduction ([2]; week 3 vs week 0, line 171 B6C3H homozygous, p<0.05) [%] |
| --- | --- | --- | --- | --- | --- | --- | --- | --- | --- |
| OCCOCCN1CCN(C2=Nc3ccccc3Sc3ccccc32)CC1 [QTP, Quetiapine] | significant increases | 25 | 6 | significantly greater transgene activity | – | – | – | – | – |
| O=C(NN=C1CCCCC1)C(=O)NN=C1CCCCC1 [cuprizone, bis-cyclohexanone oxaidihydrazone] | – | – | – | – | 43 | 74 | 33 | 45 | 72 |
